Data from US9353082B2, “Pharmaceutical compounds” (BIAL—PORTELA & CA, S.A., priority 2008, dated 2016).

How the values were obtained:
FAAH [1] = target: T1, FAAH (Rattus norvegicus, UniProt P97612); experiment: In vitro FAAH activity in rat brain membranes, 3H-AEA substrate, % of control; type: biochemical, Wistar rats; conditions: low value = strong inhibitor; for In Vitro FAAH activity, 100 nM: 100 nM test compound; for In Vitro 100 nM (FAAH activity, % of control): rat brain membranes, compound at 100 nM
T1 construct: Frozen brains (without cerebellum) from Wistar rats were used; from tissue; host or cells: Wistar rat brain (without cerebellum), washed membrane pellets
T1 sequence (P97612 1-579): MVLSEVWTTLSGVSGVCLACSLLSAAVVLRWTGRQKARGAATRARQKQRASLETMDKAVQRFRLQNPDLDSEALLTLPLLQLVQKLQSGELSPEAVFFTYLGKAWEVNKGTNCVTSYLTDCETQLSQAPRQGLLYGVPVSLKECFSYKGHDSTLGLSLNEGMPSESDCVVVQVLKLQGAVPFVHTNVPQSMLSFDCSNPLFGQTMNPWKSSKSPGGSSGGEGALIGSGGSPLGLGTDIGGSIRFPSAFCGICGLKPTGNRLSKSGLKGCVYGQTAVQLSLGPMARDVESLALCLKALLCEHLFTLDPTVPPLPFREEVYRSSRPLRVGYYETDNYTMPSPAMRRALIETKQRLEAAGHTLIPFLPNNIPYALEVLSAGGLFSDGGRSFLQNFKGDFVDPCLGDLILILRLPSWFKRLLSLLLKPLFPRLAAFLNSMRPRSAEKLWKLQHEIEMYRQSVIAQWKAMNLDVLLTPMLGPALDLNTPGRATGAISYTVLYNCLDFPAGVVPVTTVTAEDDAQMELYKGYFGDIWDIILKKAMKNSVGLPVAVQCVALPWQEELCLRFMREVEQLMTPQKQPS
In short: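 FAAH activity measured as 3H-ethanolamine released from 2 μM [3H]AEA over 10 min by rat brain membrane preparation, after 15 min 37 °C preincubation with test compound at 10 or 0.1 μM. Charcoal-separated supernatant scintillation-counted; values expressed as % of control minus no-protein blank.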

FAAH [2] = target: T2, FAAH (Mus musculus, UniProt O08914); experiment: In vivo FAAH inhibition after oral dosing, remaining activity in brain homogenate (BRh, central nervous tissue); design: species or system NMRI mice; conditions: brain homogenate, 3 mg/kg, 8 h after dosing; low value = strong inhibitor
T2 construct: A fragment of liver, left lung lobe and brain without cerebellum were removed; from tissue; host or cells: male NMRI mice; brain (without cerebellum) and liver homogenates
T2 sequence (O08914 1-579): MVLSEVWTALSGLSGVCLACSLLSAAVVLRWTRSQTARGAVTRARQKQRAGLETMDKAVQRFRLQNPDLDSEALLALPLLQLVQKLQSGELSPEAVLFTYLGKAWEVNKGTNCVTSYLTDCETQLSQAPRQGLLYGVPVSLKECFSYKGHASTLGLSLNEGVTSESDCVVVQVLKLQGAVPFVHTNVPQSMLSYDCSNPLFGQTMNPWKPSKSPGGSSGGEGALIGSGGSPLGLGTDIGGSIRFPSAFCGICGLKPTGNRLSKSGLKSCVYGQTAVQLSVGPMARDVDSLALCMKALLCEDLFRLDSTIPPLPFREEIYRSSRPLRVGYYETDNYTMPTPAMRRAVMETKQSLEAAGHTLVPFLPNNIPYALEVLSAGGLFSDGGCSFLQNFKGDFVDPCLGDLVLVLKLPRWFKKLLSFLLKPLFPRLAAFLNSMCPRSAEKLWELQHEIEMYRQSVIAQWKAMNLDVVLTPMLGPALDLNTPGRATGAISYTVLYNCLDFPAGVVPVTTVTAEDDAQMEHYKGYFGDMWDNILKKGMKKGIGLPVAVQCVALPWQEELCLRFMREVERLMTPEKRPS
Method: (§1) The in vivo test was performed according to the protocol described below. BRh indicates inhibition in central nervous tissue and LVh indicates inhibition in peripheral tissue, in this case liver.
(§2) The animals used for experiments were male NMRI mice (weighing 27-44 g) obtained from Interfauna Ibérica (Spain). Mice were kept 5 per cage, under controlled environmental conditions (12 hr light/dark cycle and room temperature 22±1° C.). Food and tap water were allowed ad libitum and the experiments were all carried out during daylight hours.
(§3) Animals were administered 30 mg/kg or 3 mg/kg compounds of the invention via oral route (8 ml/kg; compound suspended in 0.5% carboxymethylcellulose (CMC) or solubilized in water) or vehicle (controls) using animal feeding stainless steel curve needles (Perfectum, U.S.A.). Fifteen minutes before sacrifice animal were anesthetized with pentobarbital 60 mg/kg administered intraperitoneally. A fragment of liver, left lung lobe and brain without cerebellum were removed and put in plastic vials containing membrane buffer (3 mM MgCl2, 1 mM EDTA, 50 mM Tris HCl pH 7.4). Tissues were stored at −30° C. until analysis.
(§4) Animals were always fasted overnight before administration of compounds except for time points of >18 h, where food was removed on the morning of day of administration and the compound was administered in the afternoon of the same day. Animals were then given water but nothing else.
(§5) Tissues were thawed on ice and were homogenized in 10 volumes of membrane buffer (3 mM MgCl2, 1 mM EDTA, 50 mM Tris HCl pH 7.4) with either Potter-Elvejhem (brains—8 strokes at 500 rpm) or Heidolph Diax (livers—2 strokes at position 5 for 20 sec with 30 sec pauses).
(§6) Total protein in tissues was determined with the BioRad Protein Assay (BioRad) using a standard curve of BSA (50-250 μg/ml).
(§7) Reaction mix (total volume of 200 μl) contained: […] (2 μM AEA+5 nM ^3H-AEA), 0.1% fatty acid free BSA, 15 μg (brain), 5 μg (liver) or 50 μg (lung) protein, in 1 mM EDTA, 10 mM Tris pH 7.6. After a […] pre-incubation period at 37° C., reaction was started by the addition of the substrate solution (cold AEA+radiolabelled AEA+BSA). Reaction was carried out for 10 min (brain and lung) or […] (liver) before termination by the addition of 400 μl activated charcoal suspension (8 g charcoal in 32 ml 0.5 M HCl in continuous agitation). After a […] incubation period at room temperature with agitation, charcoal was sedimented by centrifugation in microfuge (10 min at 13000 rpm). 200 μl of the supernatant were added to 800 μl Optiphase Supermix scintillation cocktail previously distributed in 24-well plates. Counts per minute (cpm) were determined in a MicrobetaTriLux scintillation counter.
(§8) In each assay blanks (without protein) were prepared.
(§9) The percentage of remaining enzymatic activity was calculated in respect to controls and after blank subtraction.

FAAH [3] = target: T2, FAAH; experiment: In vivo FAAH inhibition after oral dosing, remaining activity in liver homogenate (LVh, peripheral tissue); design: species or system NMRI mice; conditions: liver homogenate, 3 mg/kg, 8 h after dosing; low value = strong inhibitor
Method: as §1, §2, §3, §4, §5, §6, §7, §8, §9

| Structure (SMILES) | In Vitro FAAH activity, 100 nM (FAAH [1]) | In Vitro 100 nM (FAAH activity, % of control) (FAAH [1]) | also measured |
| --- | --- | --- | --- |
| CN(C(=O)n1cnc(-c2cccc(-c3cc(Cl)ccc3F)c2)c1)C1CCCCC1 [Compound 259, 4-(5′-chloro-2′-fluorobiphenyl-3-yl)-N-cyclohexyl-N-methyl-1H-imidazole-1-carboxamide] | 33.7 % of control | – | – |
| CN(C(=O)n1nnc2ccccc21)C1CCCC1 [Compound 266, N-cyclopentyl-N-methyl-1H-benzo[d][1,2,3]triazole-1-carboxamide] | 0.2 % of control | – | – |
| CC1(C)OCCN1C(=O)n1cnc(-c2ccccc2)c1Cl [Compound 268, (5-chloro-4-phenyl-1H-imidazol-1-yl)(2,2-dimethyloxazolidin-3-yl)methanone] | 104.1 % of control | – | – |
| CCC1CN(C(=O)n2cnc(-c3ccccc3)c2)C(C)(C)O1 (centres unmarked) [Compound 270, (5-ethyl-2,2-dimethyloxazolidin-3-yl)(4-phenyl-1H-imidazol-1-yl)methanone] | 113.1 % of control | – | – |
| COc1ccccc1-c1cn(C(=O)N(C)C2CCCCC2)cn1 [Compound 271, N-cyclohexyl-4-(2-methoxyphenyl)-N-methyl-1H-imidazole-1-carboxamide] | 55.8 % of control | – | – |
| CN(C(=O)n1cnc(-c2ccc(Cl)c(Cl)c2)c1)C1CCCCC1 [Compound 274, N-cyclohexyl-4-(3,4-dichlorophenyl)-N-methyl-1H-imidazole-1-carboxamide] | – | 85 % of control | – |
| CN(C(=O)n1cnc(-c2ccccc2)n1)C1CCCCC1 [Compound 283, N-cyclohexyl-N-methyl-3-phenyl-1H-1,2,4-triazole-1-carboxamide] | – | 75.1 % of control | – |
| CC1(C)COCN1C(=O)n1cnc(-c2ccccc2)n1 [Compound 285, (4,4-dimethyloxazolidin-3-yl)(3-phenyl-1H-1,2,4-triazol-1-yl)methanone] | – | 85.4 % of control | – |
| CN(C(=O)n1cnc(-c2cccc(-c3ccccc3)c2)c1)C12CC3CC(CC(C3)C1)C2 [Compound 290, 4-biphenyl-3-yl-N-methyl-N-tricyclo[3.3.1.13,7]dec-1-yl-1H-imidazole-1-carboxamide] | – | – | In Vivo BRh 3 mg·kg 8 h (remaining FAAH activity, % of control) (FAAH [2]): 115 % of control; In Vivo LVh 3 mg·kg 8 h (remaining FAAH activity, % of control) (FAAH [3]): 112.4 % of control |
| COc1ccc2nnn(C(=O)N3COCC3(C)C)c2c1 [Compound 293, (4,4-dimethyloxazolidin-3-yl)(6-methoxy-1H-benzo[d][1,2,3]triazol-1-yl)methanone] | – | – | In Vivo BRh 3 mg·kg 8 h (remaining FAAH activity, % of control) (FAAH [2]): 3.5 % of control; In Vivo LVh 3 mg·kg 8 h (remaining FAAH activity, % of control) (FAAH [3]): 1.7 % of control |
| CN(C(=O)n1cnc(-c2ccc(O)cc2)c1)C1CCCC1 [Compound 294, N-cyclopentyl-4-(4-hydroxyphenyl)-N-methyl-1H-imidazole-1-carboxamide] | – | – | In Vivo BRh 3 mg·kg 8 h (remaining FAAH activity, % of control) (FAAH [2]): 1.4 % of control; In Vivo LVh 3 mg·kg 8 h (remaining FAAH activity, % of control) (FAAH [3]): 1.4 % of control |
| CC1(C)OC(c2ccccc2)CN1C(=O)n1cnc(-c2ccccc2)c1 (centres unmarked) [Compound 298, (2,2-dimethyl-5-phenyloxazolidin-3-yl)(4-phenyl-1H-imidazol-1-yl)methanone] | – | – | In Vivo BRh 3 mg·kg 8 h (remaining FAAH activity, % of control) (FAAH [2]): 74.4 % of control; In Vivo LVh 3 mg·kg 8 h (remaining FAAH activity, % of control) (FAAH [3]): 59.2 % of control |
| O=C(N1COC(c2ccccc2)C1)n1cnc(-c2ccc(F)c(F)c2)c1 (centres unmarked) [Compound 308, (4-(3,4-difluorophenyl)-1H-imidazol-1-yl)(5-phenyloxazolidin-3-yl)methanone] | – | 2.5 % of control | – |
| COc1cc(-c2cn(C(=O)N(C)C3CCCC3)cn2)ccc1F [Compound 321, N-cyclopentyl-4-(4-fluoro-3-methoxyphenyl)-N-methyl-1H-imidazole-1-carboxamide] | – | – | In Vivo BRh 3 mg·kg 8 h (remaining FAAH activity, % of control) (FAAH [2]): 1.4 % of control; In Vivo LVh 3 mg·kg 8 h (remaining FAAH activity, % of control) (FAAH [3]): 1.2 % of control |

Continued, in another order:

| In Vitro FAAH activity, 100 nM (FAAH [1]) | In Vitro 100 nM (FAAH activity, % of control) (FAAH [1]) | Structure (SMILES) | also measured |
| --- | --- | --- | --- |
| 7.5 % of control | – | CN(C(=O)n1cnc(-c2cccc(O)c2)c1)C1CCCC1 [Compound 262, N-cyclopentyl-4-(3-hydroxyphenyl)-N-methyl-1H-imidazole-1-carboxamide] | – |
| 99.6 % of control | – | CC(C)N(Cc1ccccc1)C(=O)n1cnc(-c2cccc(O)c2)c1 [Compound 265, N-benzyl-4-(3-hydroxyphenyl)-N-isopropyl-1H-imidazole-1-carboxamide] | – |
| 106.2 % of control | – | CC1(C)COCN1C(=O)n1c(Cl)nc(-c2ccc(Cl)cc2)c1Cl [Compound 269, (2,5-dichloro-4-(4-chlorophenyl)-1H-imidazol-1-yl)(4,4-dimethyloxazolidin-3-yl)methanone] | – |
| – | 72.1 % of control | CN(C(=O)n1cnc(-c2ccc(Cl)cc2)c1)C1CCCCC1 [Compound 277, 4-(4-chlorophenyl)-N-cyclohexyl-N-methyl-1H-imidazole-1-carboxamide] | – |
| – | 111.8 % of control | CC1(C)COCN1C(=O)n1cnc(-c2ccc(Cl)cc2)c1Cl [Compound 280, (5-chloro-4-(4-chlorophenyl)-1H-imidazol-1-yl)(4,4-dimethyloxazolidin-3-yl)methanone] | – |
| – | 25.5 % of control | COc1ccc(-c2cn(C(=O)N(C)C3CCCC3)cn2)cc1OC [Compound 281, N-cyclopentyl-4-(3,4-dimethoxyphenyl)-N-methyl-1H-imidazole-1-carboxamide] | – |
| – | 114.8 % of control | CN(C(=O)n1cnc(-c2cccc(OCc3ccccc3)c2)c1)C12CC3CC(CC(C3)C1)C2 [Compound 288, 4-[3-(benzyloxy)phenyl]-N-methyl-N-tricyclo[3.3.1.13,7]dec-1-yl-1H-imidazole-1-carboxamide] | – |
